Experimental data: patent US20230100062A1, “ANTIMICROBIAL PEPTIDES” (priority 2019, published 2023)
≈ marks a conversion by molar mass, not a printed value. Square brackets hold non-standard residues; d marks the D form. Ends that are not written are not given here. * marks the point of attachment. For = O=C*

Key:
[1] = system: K. pneumoniae (NCTC 5055); experiment: microbe, parasite or virus in culture; assay type: cell-based
Method: (§1) Minimum Inhibitory Concentrations assay. Minimum inhibitory concentrations (MICs) were determined by broth microdilution on P. aeruginosa, E. coli, S. aureus, M. luteus, B. subtilis, S. typhimurium and K. pneumoniae according to the Clinical and Laboratory Standards Institute. Typically, 100 μL of 0.5-1×10^6 CFU per ml of each bacterium in Mueller Hinton media broth (Oxoid) were incubated in 96-well microtiter plates with 100 μL of serial two-fold dilutions of the corresponding antimicrobial agent (from 100 to 0 μM) at 37° C. on a 3D orbital shaker. The absorbance was measured after the addition of NI01, its derivatives or an antibiotic at 600 nm using a SpectraMax i3× Multi-Mode Microplate Reader (Molecular Devices). MICs were defined as the lowest protein concentration that inhibited visible bacterial growth after 24 h at 37° C.

E. coli (ATCC 15597) = experiment: microbe, parasite or virus in culture; assay type: cell-based
Method: as §1

[2] = system: P. aeruginosa (ATCC 27853); experiment: microbe, parasite or virus in culture; assay type: cell-based; settings: for antibacterial activity in words: P. aeruginosa, summary of MICs
Method: as §1

S. aureus (ATCC 6538) = experiment: microbe, parasite or virus in culture; assay type: cell-based; settings: for antibacterial activity in words: S. aureus, summary of MICs
Method: as §1

B. subtilis (ATCC 6633) = experiment: microbe, parasite or virus in culture; assay type: cell-based
Method: as §1

M. luteus (ATCC 49732) = experiment: microbe, parasite or virus in culture; assay type: cell-based
Method: as §1

S. typhimurium (DA6192) = experiment: Minimum inhibitory concentration, broth microdilution; assay type: cell-based; settings: 24 h at 37° C.
Method: as §1

mammalian cells lines = settings: cited from earlier work
Hemolysis assay = assay type: cell-based, human; settings: human, human erythrocytes, 10% (vol/vol) suspension, pH 7.2
Method: (§2) Hemolysis assay. Hemolysis was determined using human erythrocytes sourced commercially from Cambridge Bioscience Ltd. and used within two days. 10% (vol/vol) suspensions of human erythrocytes were incubated with NI01, its derivatives or antibiotics. The cells were rinsed four times in 10 mM phosphate buffer saline (PBS, GibcoTM), pH 7.2, by repeated centrifugation and re-suspension (3 min at 3000×g). The cells were then incubated at room temperature for 1 h in either deionized water (fully hemolysed control), PBS, or with a corresponding antimicrobial agent in PBS. After centrifugation at 10,000×g for 5 min, the supernatant was separated from the pellet, and the absorbance was measured at 550 nm using a SpectraMax i3× Multi-Mode Microplate Reader (Molecular Devices). Absorbance of the suspension treated with deionized water defined complete hemolysis. The values given in Table S2 correspond to concentrations needed to lyse half of the sample population (50% lysis of erythrocytes) and are expressed as median hemolytic doses—HD50.

Human erythrocytes = experiment: Hemolysis assay; assay type: cell-based
Method: as §2

[3] = In-liquid AFM imaging of SLBs mimicking bacterial membranes; settings: 0.25 μM
Text: Lipid Vesicle Preparation. 1-palmitoyl-2-oleoyl-glycero-3-phosphocholine (POPC) with 1-palmitoyl-2-oleoyl-sn-glycero-3-phospho-(1′-rac-glycerol) (POPG) lipids used for vesicle construction were from Avanti Polar Lipids (Alabaster, USA). POPC was used as mammalian model membranes, and POPC/POPG (3:1, molar ratios) was used as bacterial model membranes. The lipids were weighted up, dissolved in chloroform-methanol (2:1, vol/vol), and dried under a nitrogen stream to form a thin film. The film was hydrated in 10 mM phosphate buffer (pH 7.4), vortexed for 2 min and bath sonicated for 30 min. The obtained suspension was extruded using a hand-held extruder (Avanti Polar lipids) (29 times, polycarbonate filter, 0.05 μm) to give a clear solution of small unilamellar vesicles, which were analysed (50 nm) by photon correlation spectroscopy (ZEN3600; Malvern Instruments, UK) following the re-suspension of vesicles to a final concentration of 1 mg/mL. Dynamic light scattering batch measurements were carried out in a low volume disposable cuvette at 25° C. Hydrodynamic radii were obtained through the fitting of autocorrelation data using the manufacturer's Dispersion Technology Software (version 5.10).
Preparation of SLBs for in-liquid AFM imaging. SLBs were formed using a vesicle fusion method as described elsewhere.^19 Freshly prepared vesicles (1.5 μL, 3 mg/mL) were added to cleaved mica that was pre-hydrated in 20 mM MOPS, 120 mM NaCl, 20 mM MgCl2 (pH 7.4).
After incubation over 45 min, the samples were washed 10 times with imaging buffer (20 mM MOPS, with 120 mM NaCl, pH 7.4) to remove unfused vesicles. The resulting SLBs were checked to confirm they were defect free. Mica discs (Agar Scientific, Stansted, UK) were glued to a metal puck, and freshly cleaved prior to lipid deposition.
In-liquid AFM imaging of SLBs. The topographic imaging of SLBs in aqueous buffers was performed on a Multimode 8 AFM system (Bruker AXS, USA) using Peak Force Tapping™ mode and MSNL-E cantilevers (Bruker AFM probes, USA). Images were taken at the PeakForce frequency of 2 kHz, PeakForce amplitude of 10-20 nm and PeakForce set-point of 10-30 mV (<100 pN). The images were then processed using Gwyddion (http://gwyddion.net) for line-by-line background subtraction (flattening) and plane fitting. NI01 or its derivatives were introduced into a 100-μL fluid cell (Bruker AXS, USA) to the final concentrations stated.

EMRSA (12873) = assay type: cell-based, S. aureus
Method: as §1

EMRSA (12845) = assay type: cell-based, S. aureus
Method: as §1

EMRSA (12817) = assay type: cell-based, S. aureus
Method: as §1

[4] = Thermal unfolding by CD spectroscopy; assay type: physicochemical; settings: 20 μM protein, pH 7.4, 10 mM phosphate buffer
Method: Circular Dichroism Spectroscopy. Aqueous peptide solutions (300 μL, at a given concentration) were prepared in filtered (0.22 μm), 10 mM phosphate buffer, pH 7.4. CD spectra recorded in the presence of synthetic membranes are for L/P molar ratio of 100. All CD spectra were recorded on a JASCO J-810 spectropolarimeter fitted with a Peltier temperature controller. All measurements were taken in ellipticities in mdeg and converted to molar ellipticities by normalizing for the concentration of peptide bonds and cuvette path length ([θ], deg cm2 dmol−1 res−1). The data collected with a 1 nm step and 1 s collection time per step are presented as the average of 4 scans. Thermal denaturation curves were recorded with 2° C. intervals using 1 nm bandwidth, 180 s equilibration time for each spectrum and with 2° C./min ramp rate.

[5] = K. pneumoniae (NCTC 5055), 24 h at 37° C.

CC1(C)S[C@@H]2[C@H](NC(=O)[C@H](N)c3ccccc3)C(=O)N2[C@H]1C(=O)O [ampicillin, reference compound]
MIC ([1]; Klebsiella pneumoniae, NCTC5055, K. pneumoniae (NCTC 5055), 24 h at 37° C., read-out: Minimum Inhibitory Concentration): 5 µg/mL (≈ 14.3 µM)
MIC (E. coli (ATCC 15597); Escherichia coli, ATCC15597, E. coli (ATCC 15597), 24 h at 37° C., read-out: Minimum Inhibitory Concentration): 24 µg/mL (≈ 68.7 µM)
MIC ([2]; Pseudomonas aeruginosa, ATCC27853, P. aeruginosa (ATCC 27853), 24 h at 37° C., read-out: Minimum Inhibitory Concentration): 8 µg/mL (≈ 22.9 µM)
MIC (S. aureus (ATCC 6538); Staphylococcus aureus, ATCC6538, S. aureus (ATCC 6538), 24 h at 37° C., read-out: Minimum Inhibitory Concentration): 1 µg/mL (≈ 2.86 µM)
MIC (B. subtilis (ATCC 6633); Bacillus subtilis, ATCC6633, B. subtilis (ATCC 6633), 24 h at 37° C., read-out: Minimum Inhibitory Concentration): 9 µg/mL (≈ 25.8 µM)
MIC (M. luteus (ATCC 49732); Micrococcus luteus, ATCC49732, M. luteus (ATCC 49732), 24 h at 37° C., read-out: Minimum Inhibitory Concentration): 1 µg/mL (≈ 2.86 µM)
MIC (S. typhimurium (DA6192); Salmonella enterica): 8 µg/mL (≈ 22.9 µM)

CC[C@H](C)[C@H](NC(=O)CN)C(=O)NCC(=O)N[C@@H](C)C(=O)N[C@H](C(=O)N[C@@H](CC(C)C)C(=O)N[C@@H](CCCCN)C(=O)N[C@H](C(=O)N[C@@H](CC(C)C)C(=O)N[C@H](C(=O)N[C@H](C(=O)NCC(=O)N[C@@H](CC(C)C)C(=O)N1CCC[C@H]1C(=O)N[C@@H](C)C(=O)N[C@@H](CC(C)C)C(=O)N[C@H](C(=O)N[C@@H](CO)C(=O)N[C@@H](Cc1c[nH]c2ccccc12)C(=O)N[C@H](C(=O)N[C@@H](CCCCN)C(=O)N[C@@H](CCCNC(=N)N)C(=O)N[C@@H](CCCCN)C(=O)N[C@@H](CCCNC(=N)N)C(=O)N[C@@H](CCC(N)=O)C(=O)N[C@@H](CCC(N)=O)C(N)=O)[C@@H](C)CC)[C@@H](C)CC)[C@@H](C)O)[C@@H](C)O)C(C)C)C(C)C [melittin]
Minimum Inhibitory Concentration [1, 5]: 9 µg/mL

For-MAAFMKLIQFLATKGQKYVSLAWKHKGTILKWINAGQSFEWIYKQIKKLWA [NI01, epidermicin NI01]
toxicity towards mammalian cells lines (mammalian cells lines): negligible levels of toxicity
HC50 at 1 h (Hemolysis assay): 500 µg/mL
hemolytic activity in words (Human erythrocytes): non-hemolytic

For-[dM][dA][dA][dF][dM][dK][dL][dI][dQ][dF][dL][dA][dT][dK]G[dQ][dK][dY][dV][dS][dL][dA][dW][dK][dH][dK]G[dT][dI][dL][dK][dW][dI][dN][dA]G[dQ][dS][dF][dE][dW][dI][dY][dK][dQ][dI][dK][dK][dL][dW][dA] [NI01 D-form]
mode of membrane disruption (AFM) [3]: strikingly similar pattern to that of the all-L form
HC50 at 1 h (Hemolysis assay): 600 µg/mL
hemolytic activity in words (Human erythrocytes): non-hemolytic

H-MAAFMKLIQFLATKGQKYVSLAWKHKGTILKWIN-NH2 [α1α2α3]
Minimum Inhibitory Concentration ([1]; NCTC 5055, 24 h): 20 µg/mL
Minimum Inhibitory Concentration (E. coli (ATCC 15597); ATCC 15597, 24 h): 6 µg/mL
Minimum Inhibitory Concentration ([2]; ATCC 27853, 24 h): 12 µg/mL
Minimum Inhibitory Concentration (S. aureus (ATCC 6538); ATCC 6538, 24 h): 6 µg/mL
Minimum Inhibitory Concentration (B. subtilis (ATCC 6633); ATCC 6633, 24 h): 6 µg/mL
Minimum Inhibitory Concentration (M. luteus (ATCC 49732); ATCC 49732, 24 h): 6 µg/mL
Minimum Inhibitory Concentration (EMRSA (12873)): 32 µg/mL
Minimum Inhibitory Concentration (EMRSA (12845)): 32 µg/mL
Minimum Inhibitory Concentration (EMRSA (12817)): 32 µg/mL
mode of membrane disruption (AFM) [3]: two predicted modes of membrane disruption were evident
HC50 at 1 h (Hemolysis assay): 200 µg/mL

KGTILKWINAGQSFEWIYKQIKKLWA-NH2 [α3α4]
antibacterial activity in words [2]: ineffective
antibacterial activity in words (S. aureus (ATCC 6538)): equally effective
mode of membrane disruption (AFM) [3]: mixed mode of membrane disruption
HC50 at 1 h (Hemolysis assay): 150 µg/mL

KYVSLAWKHKGTILKWINAGQSFEWIYKQIKKLWA-NH2 [α2α3α4]
HC50 at 1 h (Hemolysis assay): 200 µg/mL

MAAFMKLIQFLATKGQKYVSLAWK-NH2 [α1α2]
antibacterial activity in words [2]: ineffective
antibacterial activity in words (S. aureus (ATCC 6538)): equally effective
mode of membrane disruption (AFM) [3]: extended petal-like pores
HC50 at 1 h (Hemolysis assay): 150 µg/mL

MAAFMRLIQFLATRGQRYVSLAWRRRGTILRWINAGQSFEWIYRQIRRLWA-NH2 [NI01 R-mutant]
Minimum Inhibitory Concentration ([1]; NCTC 5055, 24 h): 18 µg/mL
Minimum Inhibitory Concentration (E. coli (ATCC 15597); ATCC 15597, 24 h): 9 µg/mL
Minimum Inhibitory Concentration ([2]; ATCC 27853, 24 h): >300 µg/mL
Minimum Inhibitory Concentration (S. aureus (ATCC 6538); ATCC 6538, 24 h): 5 µg/mL
Minimum Inhibitory Concentration (B. subtilis (ATCC 6633); ATCC 6633, 24 h): 18 µg/mL
Minimum Inhibitory Concentration (M. luteus (ATCC 49732); ATCC 49732, 24 h): 2 µg/mL
mode of membrane disruption (AFM) [3]: exclusively thinning patches
HC50 at 1 h (Hemolysis assay): 250 µg/mL
hemolytic activity in words (Human erythrocytes): drastically increased

QKYVSLAWKHKGTILKWINA-NH2 [α2α3]
concentration showing no hemolytic activity (Human erythrocytes): > 600 µg/mL

aureocin A53
mode of membrane disruption (AFM) [3]: membrane thinning patches and transmembrane lesions and pores
transition midpoint (TM) of thermal unfolding [4]: ~54 °C

polymyxin B [reference compound]
Minimum Inhibitory Concentration [1, 5]: 4 µg/mL
Minimum Inhibitory Concentration (E. coli (ATCC 15597); E. coli (ATCC 15597), 24 h at 37° C.): 2 µg/mL
Minimum Inhibitory Concentration ([2]; P. aeruginosa (ATCC 27853), 24 h at 37° C.): 2 µg/mL
Minimum Inhibitory Concentration (S. aureus (ATCC 6538); S. aureus (ATCC 6538), 24 h at 37° C.): 32 µg/mL
Minimum Inhibitory Concentration (B. subtilis (ATCC 6633); B. subtilis (ATCC 6633), 24 h at 37° C.): 4 µg/mL
Minimum Inhibitory Concentration (M. luteus (ATCC 49732); M. luteus (ATCC 49732), 24 h at 37° C.): 2 µg/mL
HD30, median hemolytic doses to achieve 50% lysis (Human erythrocytes; Human erythrocytes, 1 h at room temperature): 350 µg/mL
Minimum Inhibitory Concentration (S. typhimurium (DA6192)): 2 µg/mL
